Values joined by “and” are separate entries in the source; they are usually repeats but may differ in a detail not shown here. Equal entries are not always repeated.
Columns and labels:
Siglec-1 fragment = Siglec-1 fragment (Homo sapiens, UniProt Q9BZZ2); assay: Direct ESI-MS binding assay; details: oligosaccharide moiety of the ganglioside; 3.6 µM Siglec-1 fragment, 20-140 µM ligand; table gives replicates, text mean ± SD; read-out: dissociation constant (Kd) of soluble Siglec-1 to the ganglioside oligosaccharide
Experimental: The affinities of ganglioside (GM1, GM2, GM3, and GD1a) oligosaccharides (L) for the Siglec-1 fragment were measured by the direct ESI-MS assay[1]. A reference protein (Pref) was added to the ESI solutions in order to correct mass spectra for any nonspecific binding that occurred during the ESI process[2]. […] Direct ESI-MS measurements were performed with nanoflow ESI in positive ion mode (voltage ~1 kV) on a Q-Exactive Orbitrap mass spectrometer (Thermo Fisher Scientific). Automatic gain control (AGC) target, the maximum inject time, capillary temperature, and S-lens RF level were set to 1 × 10^6, 100 ms, 150, and 100 °C, respectively. The resolution was 17,500 at m/z 200. Data acquisition and processing were carried out using Xcalibur (Thermo Fisher, version 4.1).

WT Siglec-6 CHO cells = biological target: T1, WT Siglec-6 CHO cells (Homo sapiens, UniProt O43699); assay: Cell assay (liposome/EV binding, flow cytometry);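 as to liposome binding, fluorescence signal (replicates): AF647 fluorescence intensity from 0.1 mol% AF647–PEG45–DSPE in liposomes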; assay type: cell-based; details: for Binding of liposomes to WT Siglec-6 CHO cells relative to liposomes formulated without a ligand (Fig. 3c): 3 mol% glycolipid, Cer = native ganglioside, Amide = amide-linked nGL; for Binding of liposomes to WT Siglec-6 CHO cells relative to liposomes formulated without a ligand (Fig. 3c) / Binding of nGL liposomes relative to liposomes formulated with 3 mol% nGL 5 (Fig. 3g): replicates; for nGLL binding to WT Siglec-6 CHO cells (in words): 3 mol% nGL in liposomes; for Binding of nGL liposomes relative to liposomes formulated with 3 mol% nGL 5 (Fig. 3g): WT Siglec-6 CHO cells
T1 construct: expressed in transfected cells
Experimental: (§1) Stock lipids (DSPC, Cholesterol, PEG45–DSPE) solutions were prepared by solvating the lipids in chloroform. An appropriate volume of each lipid solution was transferred to a glass test tube to reach the desired mol% of the component. The chloroform was then removed under N2 gas to yield a lipid thin film. Once dry, 100 µL of DMSO was added to the lipid-containing test tube and then the functional lipids (ganglioside, AF647–PEG45–DSPE, Siglec ligand–PEG45–DSPE, pHrodo–PEG45–DSPE, NGL) was added from their respect DMSO stock solution. The lipid mixture was then stored at −80 °C until completely frozen at which point excess DMSO was removed via lyophilization. Dry lipids were then stored at −80 °C until they were extruded. Lipid suppliers can be found in Supplementary Table 4.
(§2) Dry lipids were then hydrated in 1 mL of PBS. The lipids were then sonicated in a bath sonicator in a cycle of 1 min on, 5 min off for a total of five cycles. Liposomes were then extruded using an Avanti mini extruder first using an 800 nm filter and then a 100 nm filter yielding liposomes that were 130 ± 35 nm (Supplementary Table 5) measured using a Malvern Panalytical Zetasizer Nano S. Liposomes were stored at 4 °C.
(§3) 200,000 cells/well were plated into a 96-well U-bottom microplate and centrifuged at 300 × g for 5 min. The cells were then resuspended in 50 µL of 50 µM liposome/50 µg/mL (protein concentration) of EV solution in DMEM F12 5% FBS and incubated at 37 °C for 30 min. Excess liposomes were then removed via centrifuged at 300 × g for 5 min followed by washing the cells with FACS solution. The cells were then resuspended in (1:250 V/V) anti-Siglec-flow buffer (1% V/V FBS, 500 µM, EDTA Hank’s Balanced Salt Solution pH 7.4), solution and left to rest on ice for 30 min. The cells were then centrifuged again at 300 × g for 5 min and the cells were resuspended in FACS buffer solution and were then ready for analysis by flow cytometry. Information regarding antibody clone, catalog number supplier, label isotype, and dilution can be found in Supplementary Table 6. The Siglec-positive cells were gated on for liposome-binding analysis (Supplementary Fig. 1b).
(§4) Flow cytometry measurements were collected on a 5-laser Fortessa X-20 (BD Bioscience). All the resulting data were analyzed using FlowJo (10.5.3) software (BD Biosciences).

R122A Siglec-6 CHO cells = biological target: T2, R122A Siglec-6 CHO cells (Homo sapiens, UniProt O43699, R122A); assay: Cell assay (liposome/EV binding, flow cytometry);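 as to liposome binding, fluorescence signal (replicates): AF647 fluorescence intensity from 0.1 mol% AF647–PEG45–DSPE in liposomes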; assay type: cell-based; details: for nGLL binding to R122A Siglec-6 CHO cells (in words): 3 mol% nGL in liposomes, compared to 3 mol% 5; for Binding of nGL liposomes relative to liposomes formulated with 3 mol% nGL 5 (Fig. 3g): R122A Siglec-6 CHO cells, replicates; for liposome binding, fluorescence signal (replicates): sheet Figure S18b, cells not given
T2 construct: expressed in transfected cells
Experimental: as §1, §2, §3, §4

WT Siglec-1 CHO cells = biological target: T3, WT Siglec-1 CHO cells (Homo sapiens, UniProt Q9BZZ2); assay: Cell assay (liposome/EV binding, flow cytometry); assay type: cell-based; design: GM1 liposome binding to Siglec-1 CHO cells, flow cytometry (Fig. 1b) / Binding of liposomes with increasing ganglioside content against Siglec-1 CHO cells (Fig. 1c) / Liposome binding to Siglec-1-expressing CHO cells in the cell assay (Fig. 1f): unit not given here
T3 construct: expressed in transfected cells
Experimental: as §1, §2, §3, §4

[1] = test system: untransfected (UT) CHO cells; assay: Cell assay (liposome/EV binding, flow cytometry); assay type: cell-based, Chinese Hamster; details: sheet Figure S22b, CHO;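 also: AF647 fluorescence intensity from 0.1 mol% AF647–PEG45–DSPE in liposomes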
Experimental: as §1, §2, §3, §4

[2] = sheet Figure S17, cells not given, three experiments, each with its own Naked control
[3] = sheet Figure S18a, cells not given

T2 sequence (O43699 27-453 R122A): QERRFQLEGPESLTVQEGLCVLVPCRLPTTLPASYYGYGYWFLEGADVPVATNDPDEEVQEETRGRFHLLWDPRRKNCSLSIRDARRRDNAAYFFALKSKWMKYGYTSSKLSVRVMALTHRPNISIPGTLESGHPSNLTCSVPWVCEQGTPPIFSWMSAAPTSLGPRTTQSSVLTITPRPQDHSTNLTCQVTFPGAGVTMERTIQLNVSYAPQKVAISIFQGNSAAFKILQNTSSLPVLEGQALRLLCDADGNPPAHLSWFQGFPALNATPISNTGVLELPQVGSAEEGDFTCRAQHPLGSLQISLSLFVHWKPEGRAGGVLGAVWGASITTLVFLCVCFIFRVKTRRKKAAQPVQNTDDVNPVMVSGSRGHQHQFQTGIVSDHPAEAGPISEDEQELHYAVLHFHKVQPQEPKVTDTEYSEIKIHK
T3 sequence (Q9BZZ2 20-1709): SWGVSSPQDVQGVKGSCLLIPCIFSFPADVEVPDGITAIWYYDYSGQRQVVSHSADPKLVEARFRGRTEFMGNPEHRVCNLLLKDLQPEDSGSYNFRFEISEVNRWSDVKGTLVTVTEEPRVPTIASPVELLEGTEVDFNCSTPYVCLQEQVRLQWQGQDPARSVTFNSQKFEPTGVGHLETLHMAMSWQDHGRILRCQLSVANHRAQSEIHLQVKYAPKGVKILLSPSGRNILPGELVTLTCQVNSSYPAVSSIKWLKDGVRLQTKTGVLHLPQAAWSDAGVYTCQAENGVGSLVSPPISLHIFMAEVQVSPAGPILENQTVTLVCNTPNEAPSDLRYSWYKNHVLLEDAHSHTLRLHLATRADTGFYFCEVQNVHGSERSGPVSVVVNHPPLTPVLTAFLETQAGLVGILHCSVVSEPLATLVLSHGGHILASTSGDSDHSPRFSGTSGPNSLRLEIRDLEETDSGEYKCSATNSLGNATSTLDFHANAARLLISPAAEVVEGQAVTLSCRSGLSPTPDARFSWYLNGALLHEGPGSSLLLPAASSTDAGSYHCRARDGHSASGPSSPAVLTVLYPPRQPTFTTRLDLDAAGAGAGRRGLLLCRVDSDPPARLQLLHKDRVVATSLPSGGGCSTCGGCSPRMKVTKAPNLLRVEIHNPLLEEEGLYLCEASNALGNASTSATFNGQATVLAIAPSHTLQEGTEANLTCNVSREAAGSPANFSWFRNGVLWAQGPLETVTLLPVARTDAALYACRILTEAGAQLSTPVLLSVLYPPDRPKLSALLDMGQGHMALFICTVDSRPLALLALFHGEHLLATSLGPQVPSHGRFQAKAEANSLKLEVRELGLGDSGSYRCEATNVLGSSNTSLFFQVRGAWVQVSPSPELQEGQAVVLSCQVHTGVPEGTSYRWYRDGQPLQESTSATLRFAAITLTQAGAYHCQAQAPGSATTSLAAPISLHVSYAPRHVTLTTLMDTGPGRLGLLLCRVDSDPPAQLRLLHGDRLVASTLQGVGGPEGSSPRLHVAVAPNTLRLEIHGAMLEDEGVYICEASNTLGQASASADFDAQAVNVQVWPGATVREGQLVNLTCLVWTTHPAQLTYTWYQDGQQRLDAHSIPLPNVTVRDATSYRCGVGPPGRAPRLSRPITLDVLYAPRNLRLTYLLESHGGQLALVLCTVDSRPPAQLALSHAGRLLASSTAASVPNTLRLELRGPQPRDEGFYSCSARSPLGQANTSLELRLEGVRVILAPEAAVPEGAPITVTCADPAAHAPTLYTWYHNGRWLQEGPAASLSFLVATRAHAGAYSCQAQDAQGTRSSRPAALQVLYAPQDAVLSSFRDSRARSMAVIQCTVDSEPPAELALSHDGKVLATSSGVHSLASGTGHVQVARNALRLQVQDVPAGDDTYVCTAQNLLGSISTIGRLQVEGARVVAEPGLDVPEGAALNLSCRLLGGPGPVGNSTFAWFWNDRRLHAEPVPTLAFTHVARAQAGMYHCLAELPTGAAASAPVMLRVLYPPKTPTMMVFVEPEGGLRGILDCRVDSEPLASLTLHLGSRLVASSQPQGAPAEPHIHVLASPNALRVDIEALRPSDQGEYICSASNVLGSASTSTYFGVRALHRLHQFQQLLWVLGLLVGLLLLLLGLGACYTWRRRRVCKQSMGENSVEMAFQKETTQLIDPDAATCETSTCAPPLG
T1 sequence (O43699 27-453): as the sequence (O43699 27-453 R122A) above, with A96R counted along it
Sequence of Siglec-1 fragment (Q9BZZ2 20-136 limits assumed): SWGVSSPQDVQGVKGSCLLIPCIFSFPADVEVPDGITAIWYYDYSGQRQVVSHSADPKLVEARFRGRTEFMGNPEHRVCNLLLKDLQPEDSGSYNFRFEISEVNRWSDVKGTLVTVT

| Compound | nGLL binding to WT Siglec-6 CHO cells (in words) (WT Siglec-6 CHO cells) | Binding of nGL liposomes relative to liposomes formulated with 3 mol% nGL 5 (Fig. 3g) (WT Siglec-6 CHO cells) | liposome binding, fluorescence signal (replicates) (WT Siglec-6 CHO cells; [3]) | Binding of nGL liposomes relative to liposomes formulated with 3 mol% nGL 5 (Fig. 3g) (R122A Siglec-6 CHO cells) | liposome binding, fluorescence signal (replicates) (R122A Siglec-6 CHO cells) | further results |
| --- | --- | --- | --- | --- | --- | --- |
| CC(=O)N[C@H]1[C@H]([C@H](O)[C@H](O)CO)O[C@@](O[C@H]2[C@@H](O)[C@@H](CO)O[C@@H](O[C@H]3[C@H](O)[C@@H](O)C(O)O[C@@H]3CO)[C@@H]2O)(C(=O)O)C[C@@H]1O (stereo partly drawn) [GM3 trisaccharide, α-Neup5Ac-(2 → 3)-β-lactose] | – | – | – | – | – | Kd (Siglec-1 fragment): 500 ± 100 µM |
| CCCCCCCCCCCCCCCCOCC(COCCCCCCCCCCCCCCCC)OCC(=O)NCCO[C@@H]1O[C@H](CO)[C@@H](O[C@@H]2O[C@H](CO)[C@H](O[C@@H]3O[C@H](CO)[C@H](O)[C@H](O[C@@H]4O[C@H](CO)[C@H](O)[C@H](O)[C@H]4O)[C@H]3NC(C)=O)[C@H](O[C@]3(C(=O)O)C[C@H](O)[C@@H](NC(C)=O)[C@H]([C@H](O)[C@H](O)CO)O3)[C@H]2O)[C@H](O)[C@H]1O [nGL 3] | bound minimally | – | – | – | – | Binding of liposomes to WT Siglec-6 CHO cells relative to liposomes formulated without a ligand (Fig. 3c) (WT Siglec-6 CHO cells; listed as GM1 Amide): 0.68 and 0.67 and 0.66 and 0.75; liposome binding, fluorescence signal (replicates) (WT Siglec-6 CHO cells; [2]): 541 and 535 and 525 and 596 |
| CCCCCCCCCCCCCCCCOCC(COCCCCCCCCCCCCCCCC)OCC(=O)NCCO[C@@H]1O[C@H](CO)[C@@H](O[C@@H]2O[C@H](CO)[C@H](O)[C@H](O[C@]3(C(=O)O)C[C@H](O)[C@@H](NC(C)=O)[C@H]([C@H](O)[C@H](O)CO)O3)[C@H]2O)[C@H](O)[C@H]1O [nGL 4] | – | – | – | – | – | Binding of liposomes to WT Siglec-6 CHO cells relative to liposomes formulated without a ligand (Fig. 3c) (WT Siglec-6 CHO cells; listed as GM3 Amide): 2.34 and 2.47 and 2.38 and 2.75; liposome binding, fluorescence signal (replicates) (WT Siglec-6 CHO cells; [2]): 713 and 752 and 727 and 839 |
| CCCCCCCCCCCCCCCCOCC(COCCCCCCCCCCCCCCCC)OCc1cn(CCO[C@@H]2O[C@H](CO)[C@@H](O[C@@H]3O[C@H](CO[C@]4(C(=O)O)C[C@H](O)[C@@H](NC(C)=O)[C@H]([C@H](O)[C@H](O)CO)O4)[C@H](O)[C@H](O)[C@H]3O)[C@H](O)[C@H]2O)nn1 [nGL 8] | bound minimally | 0.05 and 0.03 and 0.06 and 0.07 | 720 and 670 and 748 and 768 | 0.06 and 0.08 and 0.07 | 599 and 635 and 605 | nGLL binding to R122A Siglec-6 CHO cells (in words) (R122A Siglec-6 CHO cells): bound minimally |
| CCCCCCCCCCCCCCCCOCC(COCCCCCCCCCCCCCCCC)OCc1cn(CCO[C@@H]2O[C@H](CO)[C@@H](O[C@@H]3O[C@H](CO)[C@H](O)[C@H](O[C@]4(C(=O)O)C[C@H](O)[C@@H](NC(C)=O)[C@H]([C@H](O)[C@H](O)CO)O4)[C@H]3O)[C@H](O)[C@H]2NC(C)=O)nn1 [nGL 9] | modestly lower | 0.77 and 0.6 and 0.59 and 0.63 | 2520 and 2097 and 2058 and 2158 | 0.83 and 0.93 and 0.81 and 1.01 | 1939 and 2127 and 1908 and 2268 | – |
| CCCCCCCCCCCCCCCCOCC(COCCCCCCCCCCCCCCCC)OCc1cn(CCO[C@@H]2O[C@H](CO)[C@@H](O[C@@H]3O[C@H](CO[C@]4(C(=O)O)C[C@H](O)[C@@H](NC(C)=O)[C@H]([C@H](O)[C@H](O)CO)O4)[C@H](O)[C@H](O)[C@H]3O)[C@H](O)[C@H]2NC(C)=O)nn1 [nGL 10] | bound minimally | 0.19 and 0.16 and 0.21 | 1069 and 1003 and 987 and 1125 | 0.23 and 0.15 and 0.27 | 899 and 894 and 758 and 962 | nGLL binding to R122A Siglec-6 CHO cells (in words) (R122A Siglec-6 CHO cells): bound minimally |
| asialo GM1 [GA1] | – | – | – | – | – | Liposome binding to Siglec-1-expressing CHO cells in the cell assay (Fig. 1f) (WT Siglec-1 CHO cells; 3% glycolipid in liposome, replicates): 71 and 68; binding to WT Siglec-1 CHO cells (in words) (WT Siglec-1 CHO cells; cell assay): did not mediate binding; liposome binding, fluorescence signal (replicates) [1]: 60 and 57 and 55 and 52; liposome binding, fluorescence signal (replicates) (WT Siglec-6 CHO cells; sheet Figure S22b, Sig-6): 66 and 69 and 61 and 64 |

Source: PMC10122656, “Siglec-6 mediates the uptake of extracellular vesicles through a noncanonical glycolipid binding pocket” (Nature Communications, 2023)
